Tests used:
Assay in all cases: Test G preemergence/postemergence greenhouse plant response rating 0 to 100
common purslane = assay type: in vivo, Portulaca oleracea; conditions: 0 to 100 scale
Text: (§1) Seeds, rhizomes, or plant parts of alfalfa (Medicago ativa), annual bluegrass (Poa annua), bermudagrass (Cynodon dactylon), broadleaf signalgrass (Brachiaria plantaginea), common purslane (Portulaca oleracea), common ragweed (Ambrosia elatior), […] (Paspalum dilatatum), goosegrass (Eleusine indica), guineagrass (Panicum maximum), […] exaltata), johnsongrass (Sorghum halepense), large crabgrass (Digitaria sanguinalis), peanut (Arachis hypoagaea), pitted morningglory (Ipomoea lacunosa), purple nutsedge (Cyperus rotundus), sandbur (Cenchrus echinatus), smooth crabgrass (Digitaria ischaemum) and yellow nutsedge (Cyperus esculentus) were planted into greenhouse pots containing greenhouse planting medium. Each pot contained only one plant species. The test compound was dissolved in a non-phytotoxic solvent and applied preemergence and/or postemergence to the plants. Preemergence applications were made within one day of planting the seeds or plant parts. Postemergence applications were applied when the plants were in the two to four leaf stage (three to twenty cm). Test chemicals were dissolved in a non-phytotoxic solvent and applied preemergence and postemergence to the plants. Untreated control plants and treated plants were placed in the greenhouse and visually evaluated for injury at 13 to 21 days after herbicide application. […] A dash (-) response indicates no test result.

broadleaf signalgrass = assay type: in vivo, Brachiaria plantaginea; conditions: 0 to 100 scale
Text: as §1

dallisgrass = assay type: in vivo, Paspalum dilatatum; conditions: 0 to 100 scale
Text: as §1

sandbur = assay type: in vivo, Cenchrus echinatus; conditions: 0 to 100 scale
Text: as §1

common ragweed = assay type: in vivo, Ambrosia elatior; conditions: 0 to 100 scale
Text: as §1

guineagrass = assay type: in vivo, Panicum maximum; conditions: 0 to 100 scale
Text: as §1

itchgrass = assay type: in vivo, Rottboellia exaltata; conditions: 0 to 100 scale
Text: as §1

alfalfa = assay type: in vivo, Medicago ativa; conditions: 0 to 100 scale
Text: as §1

annual bluegrass = assay type: in vivo, Poa annua; conditions: 0 to 100 scale
Text: as §1

smooth crabgrass = assay type: in vivo, Digitaria ischaemum; conditions: 0 to 100 scale
Text: as §1

purple nutsedge = assay type: in vivo, Cyperus rotundus; conditions: Rate 125 g/ha, 0 to 100 scale
Text: as §1

pitted morningglory = assay type: in vivo, Ipomoea lacunosa; conditions: 0 to 100 scale
Text: as §1

johnsongrass = assay type: in vivo, Sorghum halepense; conditions: 0 to 100 scale
Text: as §1

large crabgrass = assay type: in vivo, Digitaria sanguinalis; conditions: 0 to 100 scale
Text: as §1

bermudagrass = assay type: in vivo, Cynodon dactylon; conditions: 0 to 100 scale
Text: as §1

goosegrass = assay type: in vivo, Eleusine indica; conditions: 0 to 100 scale
Text: as §1

SMILES: CCS(=O)(=O)Oc1cc(-c2nn3c(c2Cl)CCCC3)c(F)cc1Cl [Compound 25]
- Plant response rating, Cmn Purslane (common purslane; POSTEMERGENCE, Rate 125 g/ha): 100
- Plant response rating, Cmn Purslane (common purslane; POSTEMERGENCE, Rate 250 g/ha): 60
- Plant response rating, Cmn Purslane (common purslane; PREEMERGENCE, Rate 125 g/ha): 0
- Plant response rating, Cmn Purslane (common purslane; PREEMERGENCE, Rate 250 g/ha): 0
- Plant response rating, Brdlf Sgnlgrass (broadleaf signalgrass; POSTEMERGENCE, Rate 125 g/ha): 0
- Plant response rating, Brdlf Sgnlgrass (broadleaf signalgrass; POSTEMERGENCE, Rate 250 g/ha): 0
- Plant response rating, Brdlf Sgnlgrass (broadleaf signalgrass; PREEMERGENCE, Rate 125 g/ha): 0
- Plant response rating, Brdlf Sgnlgrass (broadleaf signalgrass; PREEMERGENCE, Rate 250 g/ha): 0
- Plant response rating, Dallisgrass (dallisgrass; POSTEMERGENCE, Rate 125 g/ha): 0
- Plant response rating, Dallisgrass (dallisgrass; POSTEMERGENCE, Rate 250 g/ha): 0
- Plant response rating, Dallisgrass (dallisgrass; PREEMERGENCE, Rate 125 g/ha): 0
- Plant response rating, Dallisgrass (dallisgrass; PREEMERGENCE, Rate 250 g/ha): 0
- Plant response rating, S. Sandbur (sandbur; POSTEMERGENCE, Rate 125 g/ha): 0
- Plant response rating, S. Sandbur (sandbur; POSTEMERGENCE, Rate 250 g/ha): 0
- Plant response rating, S. Sandbur (sandbur; PREEMERGENCE, Rate 125 g/ha): 0
- Plant response rating, S. Sandbur (sandbur; PREEMERGENCE, Rate 250 g/ha): 0
- Plant response rating, Cmn Ragweed (common ragweed; POSTEMERGENCE, Rate 125 g/ha): 50
- Plant response rating, Cmn Ragweed (common ragweed; POSTEMERGENCE, Rate 250 g/ha): 0
- Plant response rating, Cmn Ragweed (common ragweed; PREEMERGENCE, Rate 125 g/ha): 0
- Plant response rating, Cmn Ragweed (common ragweed; PREEMERGENCE, Rate 250 g/ha): 0
- Plant response rating, Guineagrass (guineagrass; POSTEMERGENCE, Rate 125 g/ha): 0
- Plant response rating, Guineagrass (guineagrass; POSTEMERGENCE, Rate 250 g/ha): 0
- Plant response rating, Guineagrass (guineagrass; PREEMERGENCE, Rate 125 g/ha): 0
- Plant response rating, Guineagrass (guineagrass; PREEMERGENCE, Rate 250 g/ha): 0
- Plant response rating, Itchgrass (itchgrass; POSTEMERGENCE, Rate 125 g/ha): 0
- Plant response rating, Itchgrass (itchgrass; POSTEMERGENCE, Rate 250 g/ha): 0
- Plant response rating, Itchgrass (itchgrass; PREEMERGENCE, Rate 125 g/ha): 0
- Plant response rating, Itchgrass (itchgrass; PREEMERGENCE, Rate 250 g/ha): 0
- Plant response rating, Alfalfa Var. (alfalfa; POSTEMERGENCE, Rate 125 g/ha): 0
- Plant response rating, Alfalfa Var. (alfalfa; POSTEMERGENCE, Rate 250 g/ha): 0
- Plant response rating, Alfalfa Var. (alfalfa; PREEMERGENCE, Rate 125 g/ha): 0
- Plant response rating, Alfalfa Var. (alfalfa; PREEMERGENCE, Rate 250 g/ha): 0
- Plant response rating, Ann Bluegrass (annual bluegrass; POSTEMERGENCE, Rate 125 g/ha): 0
- Plant response rating, Ann Bluegrass (annual bluegrass; POSTEMERGENCE, Rate 250 g/ha): 0
- Plant response rating, Ann Bluegrass (annual bluegrass; PREEMERGENCE, Rate 125 g/ha): 0
- Plant response rating, Ann Bluegrass (annual bluegrass; PREEMERGENCE, Rate 250 g/ha): 0
- Plant response rating, Smooth Crabgras (smooth crabgrass; POSTEMERGENCE, Rate 125 g/ha): 0
- Plant response rating, Smooth Crabgras (smooth crabgrass; POSTEMERGENCE, Rate 250 g/ha): 0
- Plant response rating, Smooth Crabgras (smooth crabgrass; PREEMERGENCE, Rate 125 g/ha): 0
- Plant response rating, Smooth Crabgras (smooth crabgrass; PREEMERGENCE, Rate 250 g/ha): 0
- Plant response rating, Purple Nutsedge (purple nutsedge; POSTEMERGENCE): 0
- Plant response rating, Purple Nutsedge (purple nutsedge; PREEMERGENCE): 0
- Plant response rating, Pit Morninglory (pitted morningglory; POSTEMERGENCE, Rate 125 g/ha): 0
- Plant response rating, Pit Morninglory (pitted morningglory; POSTEMERGENCE, Rate 250 g/ha): 0
- Plant response rating, Pit Morninglory (pitted morningglory; PREEMERGENCE, Rate 125 g/ha): 0
- Plant response rating, Pit Morninglory (pitted morningglory; PREEMERGENCE, Rate 250 g/ha): 0
- Plant response rating, Johnsongrass (johnsongrass; POSTEMERGENCE, Rate 125 g/ha): 0
- Plant response rating, Johnsongrass (johnsongrass; POSTEMERGENCE, Rate 250 g/ha): 0
- Plant response rating, Johnsongrass (johnsongrass; PREEMERGENCE, Rate 125 g/ha): 0
- Plant response rating, Johnsongrass (johnsongrass; PREEMERGENCE, Rate 250 g/ha): 0
- Plant response rating, Large Crabgrass (large crabgrass; POSTEMERGENCE, Rate 125 g/ha): 0
- Plant response rating, Large Crabgrass (large crabgrass; POSTEMERGENCE, Rate 250 g/ha): 0
- Plant response rating, Large Crabgrass (large crabgrass; PREEMERGENCE, Rate 125 g/ha): 0
- Plant response rating, Large Crabgrass (large crabgrass; PREEMERGENCE, Rate 250 g/ha): 0
- Plant response rating, Bermudagrass (bermudagrass; POSTEMERGENCE, Rate 125 g/ha): 0
- Plant response rating, Bermudagrass (bermudagrass; POSTEMERGENCE, Rate 250 g/ha): 0
- Plant response rating, Bermudagrass (bermudagrass; PREEMERGENCE, Rate 125 g/ha): 0
- Plant response rating, Bermudagrass (bermudagrass; PREEMERGENCE, Rate 250 g/ha): 0
- Plant response rating, Goosegrass (goosegrass; POSTEMERGENCE, Rate 125 g/ha): 0
- Plant response rating, Goosegrass (goosegrass; POSTEMERGENCE, Rate 250 g/ha): 0
- Plant response rating, Goosegrass (goosegrass; PREEMERGENCE, Rate 125 g/ha): 0
- Plant response rating, Goosegrass (goosegrass; PREEMERGENCE, Rate 250 g/ha): 0

Reference: patent US6358885B1, “Substituted phenylheterocyclic herbicides” (Mississippi State University, priority 1992, dated 2002)
